Data published in ChEMBL document CHEMBL5226279, “Mercaptoacetamide: A promising zinc-binding group for the discovery of selective histone deacetylase 6 inhibitors” (Eur J Med Chem, 2021).
≈ marks a conversion by molar mass, not a printed value.

How the values were obtained:
[1] = biological target: T1, Protein deacetylase HDAC6 (Homo sapiens, UniProt Q9UBN7); experiment: Inhibition of human full length recombinant HDAC6 expressed in baculovirus infected Sf9 cells using RHKKAc as substrate preincubated for 5 to 10 mins followed by substrate addition and measured after 2 hrs by fluorescence based analysis
T1 sequence (Q9UBN7 whole entry): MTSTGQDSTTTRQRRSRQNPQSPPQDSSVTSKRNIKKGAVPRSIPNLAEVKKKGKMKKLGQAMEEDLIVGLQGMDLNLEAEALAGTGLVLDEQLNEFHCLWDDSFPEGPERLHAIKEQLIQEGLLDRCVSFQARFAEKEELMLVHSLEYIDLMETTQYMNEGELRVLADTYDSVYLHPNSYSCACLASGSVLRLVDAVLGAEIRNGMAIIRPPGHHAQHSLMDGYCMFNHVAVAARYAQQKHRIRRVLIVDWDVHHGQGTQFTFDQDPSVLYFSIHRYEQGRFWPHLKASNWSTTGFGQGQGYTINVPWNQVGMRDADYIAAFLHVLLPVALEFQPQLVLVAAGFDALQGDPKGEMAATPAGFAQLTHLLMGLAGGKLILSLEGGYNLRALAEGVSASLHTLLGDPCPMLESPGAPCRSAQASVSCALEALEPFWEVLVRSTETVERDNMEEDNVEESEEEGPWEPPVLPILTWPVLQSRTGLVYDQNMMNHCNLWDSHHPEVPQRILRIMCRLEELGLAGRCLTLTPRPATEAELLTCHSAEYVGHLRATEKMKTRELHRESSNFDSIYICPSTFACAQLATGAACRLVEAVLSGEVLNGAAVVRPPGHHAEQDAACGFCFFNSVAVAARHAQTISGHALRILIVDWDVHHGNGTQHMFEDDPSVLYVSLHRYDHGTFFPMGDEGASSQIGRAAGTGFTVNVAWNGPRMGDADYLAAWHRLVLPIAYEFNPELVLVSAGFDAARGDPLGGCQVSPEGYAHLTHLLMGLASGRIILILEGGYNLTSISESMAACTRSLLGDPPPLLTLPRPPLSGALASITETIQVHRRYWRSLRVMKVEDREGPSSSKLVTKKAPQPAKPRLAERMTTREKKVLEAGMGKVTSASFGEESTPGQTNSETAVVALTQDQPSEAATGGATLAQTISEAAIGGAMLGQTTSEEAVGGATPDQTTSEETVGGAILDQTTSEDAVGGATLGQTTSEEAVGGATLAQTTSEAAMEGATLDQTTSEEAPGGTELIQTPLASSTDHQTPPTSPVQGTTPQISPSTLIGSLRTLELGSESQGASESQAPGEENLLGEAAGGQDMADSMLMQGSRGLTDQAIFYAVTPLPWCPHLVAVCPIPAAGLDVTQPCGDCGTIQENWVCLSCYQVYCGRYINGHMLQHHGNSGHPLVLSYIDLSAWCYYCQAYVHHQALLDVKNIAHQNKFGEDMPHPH

Histone deacetylase 2 [2] = biological target: T2, Histone deacetylase 2 (Homo sapiens, UniProt Q92769); experiment: Inhibition of human full length recombinant HDAC2 expressed in baculovirus infected Sf9 cells using RHKKAc as substrate preincubated for 5 to 10 mins followed by substrate addition and measured after 2 hrs by fluorescence based analysis
Histone deacetylase 1 [3] = biological target: T3, Histone deacetylase 1 (Homo sapiens, UniProt Q13547); experiment: Inhibition of human full length recombinant HDAC1 expressed in baculovirus infected Sf9 cells using RHKKAc as substrate preincubated for 5 to 10 mins followed by substrate addition and measured after 2 hrs by fluorescence based analysis
Histone deacetylase 2 [4] = biological target: T2, Histone deacetylase 2; experiment: Inhibition of human HDAC2 using FAM-labeled acetylated peptide as substrate incubated for 17 hrs by fluorescence based assay
Histone deacetylase 8 = biological target: T4, Histone deacetylase 8 (Homo sapiens, UniProt Q9BY41); experiment: Inhibition of human HDAC8 using FAM-labeled acetylated peptide as substrate incubated for 17 hrs by fluorescence based assay
T4 sequence (Q9BY41 whole entry): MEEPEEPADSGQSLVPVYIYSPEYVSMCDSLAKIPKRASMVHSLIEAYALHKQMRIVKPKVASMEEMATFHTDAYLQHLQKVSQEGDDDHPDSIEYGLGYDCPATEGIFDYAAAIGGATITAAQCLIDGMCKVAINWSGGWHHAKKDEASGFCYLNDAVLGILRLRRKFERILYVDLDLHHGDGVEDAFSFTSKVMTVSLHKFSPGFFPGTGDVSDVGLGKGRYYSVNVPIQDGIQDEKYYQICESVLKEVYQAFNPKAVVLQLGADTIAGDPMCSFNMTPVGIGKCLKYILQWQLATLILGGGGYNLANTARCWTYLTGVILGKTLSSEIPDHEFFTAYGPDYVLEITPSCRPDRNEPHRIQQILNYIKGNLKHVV

[5] = biological target: T1, Protein deacetylase HDAC6; experiment: Inhibition of human HDAC6 using FAM-labeled acetylated peptide as substrate incubated for 17 hrs by fluorescence based assay
[6] = biological target: T5, Polyamine deacetylase HDAC10 (Homo sapiens, UniProt Q969S8); experiment: Inhibition of human HDAC10 using FAM-labeled acetylated peptide as substrate incubated for 17 hrs by fluorescence based assay
T5 sequence (Q969S8 whole entry): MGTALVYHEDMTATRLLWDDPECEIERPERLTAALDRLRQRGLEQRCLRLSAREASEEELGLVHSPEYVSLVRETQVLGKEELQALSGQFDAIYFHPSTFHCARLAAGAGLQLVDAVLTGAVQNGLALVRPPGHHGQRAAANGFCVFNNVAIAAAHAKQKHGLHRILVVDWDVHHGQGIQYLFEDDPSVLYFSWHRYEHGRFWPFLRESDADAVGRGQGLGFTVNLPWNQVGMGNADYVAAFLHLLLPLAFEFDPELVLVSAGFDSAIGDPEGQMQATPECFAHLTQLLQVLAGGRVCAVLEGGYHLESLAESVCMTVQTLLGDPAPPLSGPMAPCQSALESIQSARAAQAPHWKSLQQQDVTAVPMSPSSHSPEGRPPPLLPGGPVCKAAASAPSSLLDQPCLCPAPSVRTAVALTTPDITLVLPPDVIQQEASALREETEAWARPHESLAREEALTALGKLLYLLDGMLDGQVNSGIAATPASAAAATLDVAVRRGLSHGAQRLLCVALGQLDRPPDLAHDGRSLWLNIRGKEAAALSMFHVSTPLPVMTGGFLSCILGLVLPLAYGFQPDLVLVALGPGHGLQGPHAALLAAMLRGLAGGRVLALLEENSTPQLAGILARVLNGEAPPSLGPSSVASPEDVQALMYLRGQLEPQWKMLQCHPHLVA

Histone deacetylase 1 [7] = biological target: T3, Histone deacetylase 1; experiment: Inhibition of human HDAC1 using FAM-labeled acetylated peptide as substrate incubated for 17 hrs by fluorescence based assay
[8] = Apparent permeability across apical to basolateral side in human Caco-2 cells; assay type: ADME, cell-based
[9] = Stability in human plasma assessed as half life; assay type: ADME, cell-free
[10] = Stability in rat liver microsomes assessed as half life; assay type: ADME, Microsome
[11] = Lipophilicity, logD of the compound at 37 degreeC; assay type: physicochemical; settings: octanol/water
[12] = AUC in mouse at 400 mg/kg, ip; assay type: ADME, organism-based; design: dose 400 mg/kg, route ip; settings: in vivo
[13] = Half life in mouse at 400 mg/kg, ip; assay type: ADME, organism-based; settings: in vivo
[14] = Solubility of compound in PBS at pH 7.4 at 37 degreeC measured after 24 hrs; assay type: physicochemical
[15] = Stability in mouse plasma assessed as half life; assay type: ADME, cell-free
[16] = Stability in dog liver microsomes assessed as half life; assay type: ADME, Canis lupus familiaris, Microsome
[17] = Stability in rat plasma assessed as half life; assay type: ADME, cell-free
[18] = Cmax in mouse at 400 mg/kg, ip; assay type: ADME, organism-based; design: dose 400 mg/kg, route ip; settings: in vivo
[19] = Solubility of compound in HCl at pH 1.2 at 37 degreeC measured after 24 hrs; assay type: physicochemical
[20] = Tmax in mouse at 400 mg/kg, ip; assay type: ADME, organism-based; settings: in vivo
[21] = Apparent permeability across basolateral to apical side in human Caco-2 cells; assay type: ADME, cell-based
[22] = Clearance in mouse at 400 mg/kg, ip; assay type: ADME, organism-based; settings: in vivo
[23] = Stability in porcine plasma assessed as half life; assay type: ADME, cell-free, Sus scrofa; settings: pig
[24] = Stability in human liver microsomes assessed as half life; assay type: ADME, Microsome
Histone deacetylase = experiment: Inhibition of HDAC (unknown origin); assay type: protein assay, Homo sapiens
Histone deacetylase 1 [25] = biological target: T3, Histone deacetylase 1; experiment: Inhibition of human HDAC1
Histone deacetylase 4 = Histone deacetylase 4 (Homo sapiens, UniProt P56524); experiment: Inhibition of HDAC4 (unknown origin)
[26] = biological target: T5, Polyamine deacetylase HDAC10; experiment: Inhibition of HDAC10 (unknown origin)

T3 sequence (Q13547 whole entry): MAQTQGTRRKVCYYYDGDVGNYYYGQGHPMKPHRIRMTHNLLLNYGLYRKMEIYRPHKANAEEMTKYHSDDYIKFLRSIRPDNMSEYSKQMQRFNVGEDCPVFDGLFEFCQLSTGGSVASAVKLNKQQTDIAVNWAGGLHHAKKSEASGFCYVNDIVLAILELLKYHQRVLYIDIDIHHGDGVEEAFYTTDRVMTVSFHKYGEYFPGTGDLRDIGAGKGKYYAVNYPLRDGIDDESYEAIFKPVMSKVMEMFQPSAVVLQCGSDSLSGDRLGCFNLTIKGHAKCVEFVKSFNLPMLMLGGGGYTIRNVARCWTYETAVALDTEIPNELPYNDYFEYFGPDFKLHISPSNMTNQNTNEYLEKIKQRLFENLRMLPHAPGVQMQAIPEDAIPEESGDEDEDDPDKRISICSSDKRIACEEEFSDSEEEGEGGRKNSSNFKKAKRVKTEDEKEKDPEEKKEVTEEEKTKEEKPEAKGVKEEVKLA
T2 sequence (Q92769 whole entry): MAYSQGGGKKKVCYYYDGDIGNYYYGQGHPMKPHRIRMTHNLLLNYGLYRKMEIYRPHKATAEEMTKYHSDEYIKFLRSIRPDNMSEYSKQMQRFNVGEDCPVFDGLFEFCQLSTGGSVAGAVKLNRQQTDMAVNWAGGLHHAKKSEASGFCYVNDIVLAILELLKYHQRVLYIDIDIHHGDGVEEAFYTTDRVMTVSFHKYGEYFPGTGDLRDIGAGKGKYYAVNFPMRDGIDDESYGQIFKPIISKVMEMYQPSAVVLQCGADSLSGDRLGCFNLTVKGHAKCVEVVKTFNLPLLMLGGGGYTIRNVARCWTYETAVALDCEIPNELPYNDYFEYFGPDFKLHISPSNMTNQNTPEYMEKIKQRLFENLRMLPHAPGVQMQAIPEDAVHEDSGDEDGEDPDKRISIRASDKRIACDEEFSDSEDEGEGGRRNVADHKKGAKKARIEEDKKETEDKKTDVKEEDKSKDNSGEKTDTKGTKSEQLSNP
Sequence of Histone deacetylase 4 (P56524 whole entry): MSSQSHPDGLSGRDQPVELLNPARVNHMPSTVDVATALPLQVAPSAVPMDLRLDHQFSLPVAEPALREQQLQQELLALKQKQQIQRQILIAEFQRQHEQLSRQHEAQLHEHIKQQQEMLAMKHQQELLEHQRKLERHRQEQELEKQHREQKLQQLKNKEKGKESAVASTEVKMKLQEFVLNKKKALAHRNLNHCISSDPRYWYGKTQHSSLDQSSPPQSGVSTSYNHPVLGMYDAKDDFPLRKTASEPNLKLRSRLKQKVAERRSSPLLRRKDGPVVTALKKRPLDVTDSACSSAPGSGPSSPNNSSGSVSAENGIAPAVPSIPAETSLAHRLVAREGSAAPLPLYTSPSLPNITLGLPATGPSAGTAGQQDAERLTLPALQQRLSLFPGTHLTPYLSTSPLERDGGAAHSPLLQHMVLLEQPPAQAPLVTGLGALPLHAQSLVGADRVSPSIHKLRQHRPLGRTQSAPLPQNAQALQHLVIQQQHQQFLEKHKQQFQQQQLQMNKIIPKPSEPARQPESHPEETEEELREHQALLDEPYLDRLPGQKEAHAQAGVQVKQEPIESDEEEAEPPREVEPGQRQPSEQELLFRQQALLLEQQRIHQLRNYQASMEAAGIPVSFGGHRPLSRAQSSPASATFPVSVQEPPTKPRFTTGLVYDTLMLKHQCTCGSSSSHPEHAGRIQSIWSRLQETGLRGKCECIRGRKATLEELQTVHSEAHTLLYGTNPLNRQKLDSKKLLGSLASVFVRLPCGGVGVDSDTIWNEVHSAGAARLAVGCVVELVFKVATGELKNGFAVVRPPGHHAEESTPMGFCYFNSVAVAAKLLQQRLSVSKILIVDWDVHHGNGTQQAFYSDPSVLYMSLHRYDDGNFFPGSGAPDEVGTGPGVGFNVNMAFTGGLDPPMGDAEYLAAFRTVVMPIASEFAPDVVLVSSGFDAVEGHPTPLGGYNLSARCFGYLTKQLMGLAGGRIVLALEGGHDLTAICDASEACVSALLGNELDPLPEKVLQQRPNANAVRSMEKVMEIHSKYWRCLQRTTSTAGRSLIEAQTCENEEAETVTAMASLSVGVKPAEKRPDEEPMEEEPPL

| SMILES | IC50 [1] [µM] | IC50 (Histone deacetylase 2 [2]) [µM] | IC50 (Histone deacetylase 1 [3]) [µM] | other results |
| --- | --- | --- | --- | --- |
| Cc1noc(-c2ccccc2)c1C#CCCCCCNC(=O)C(C)S (racemic) | 2 | 7.5 | 2.7 | – |
| NCC(=O)Nc1ccccc1-c1ccc(NC(=O)CCCCCNC(=O)CS)cc1 | – | – | – | IC50 (Histone deacetylase 2 [4]): 16 µM; IC50 (Histone deacetylase 8): 6.03 µM; IC50 [5]: 0.39 µM; IC50 [6]: 7.43 µM; IC50 (Histone deacetylase 1 [7]): 3.96 µM |
| Cc1onc(-c2ccccc2)c1/C=C\CCCCCNC(=O)CS | 4.8 | – | > 30 | – |
| CN(C)c1ccc(C(=O)NCCCCCNC(=O)CS)cc1 | – | – | – | Papp A→B [8]: 7.33 ×10⁻⁶ cm/s; half-life [9]: 1.28 h; half-life [10]: 1.17 h; logD [11]: 2.19; AUC [12]: 4.23 µM·h; half-life [13]: 1.98 h; solubility at 24 h [14]: 120 µg/mL (≈ 371 µM); half-life [15]: 2.88 h; half-life [16]: 0.717 h; half-life [17]: 1.65 h; Cmax [18]: 1540 nM; solubility at 24 h [19]: 1000 µg/mL (≈ 3090 µM); Tmax [20]: 0.5 h; Papp B→A [21]: 10 ×10⁻⁶ cm/s; CL/F [22]: 81.2 mL/min; half-life [23]: 1.48 h; half-life [24]: 1.13 h |
| N[C@@H](Cc1ccccc1)C(=O)Nc1ccccc1-c1ccc(NC(=O)CCCCCNC(=O)CS)cc1 | – | – | – | IC50 (Histone deacetylase 2 [4]): > 30 µM; IC50 (Histone deacetylase 8): 5.19 µM; IC50 [5]: 0.45 µM; IC50 [6]: 7.22 µM; IC50 (Histone deacetylase 1 [7]): 2.76 µM |
| Cc1onc(-c2ccccc2)c1COCCCCCNC(=O)[C@@H](C)S | 0.83 | – | 1.5 | – |
| CC(C)C(NC(=O)CCNC(=O)CS)C(=O)Nc1cnc2ccccc2c1 (racemic) | – | – | – | IC50 (Histone deacetylase): 25.1 µM |
| Cc1noc(-c2ccccc2)c1C#CCCCCCNC(=O)C(C)(C)S | > 30 | > 30 | > 30 | – |
| Cc1onc(-c2ccccc2)c1C(=O)NCCCCCNC(=O)C(C)S (racemic) | 1.1 | > 30 | > 30 | – |
| Cc1onc(-c2ccccc2)c1/C=C/CCCCCNC(=O)CS | 3.5 | – | 28 | – |
| Cc1onc(-c2ccccc2)c1C=CCCCCCNC(=O)C(C)S (mixture of isomers) | 9.8 | > 30 | > 30 | – |
| Cc1onc(-c2ccccc2)c1C(=O)NCCCCCNC(=O)C(C)(C)S | > 30 | > 30 | > 30 | – |
| Cc1onc(-c2ccccc2)c1C(=O)NCCCCCNC(=O)[C@H](C)S | > 30 | > 30 | > 30 | – |
| Cc1onc(-c2ccccc2)c1COCCCCCNC(=O)[C@H](C)S | > 30 | – | > 30 | – |
| Cc1noc(-c2cccc(F)c2)c1C#CCCCCCNC(=O)C(C)S (racemic) | 2.6 | 9.4 | 3.7 | – |
| Cc1onc(-c2ccccc2)c1COCCCCCNC(=O)C(C)S (racemic) | 0.85 | 14 | 9.6 | – |
| Cc1onc(-c2ccccc2)c1C=CCCCCCNC(=O)CS (mixture of isomers) | 2.7 | > 30 | > 30 | – |
| Cc1onc(-c2ccccc2)c1C=CCCCCCNC(=O)C(C)(C)S (mixture of isomers) | > 30 | > 30 | > 30 | – |
| Cc1onc(-c2ccccc2)c1/C=C/c1ccc(CNC(=O)C(C)(C)S)cc1 | > 30 | > 30 | > 30 | – |
| O=C(CCCCCCC(=O)Nc1ccccc1)NO [VORINOSTAT] | – | – | – | Papp A→B [8]: 3 ×10⁻⁶ cm/s; Papp B→A [21]: 6.33 ×10⁻⁶ cm/s |
| Cc1noc(-c2ccccc2)c1C#CCCCCNC(=O)C(C)(C)S | > 30 | > 30 | > 30 | – |
| O=C(CS)NCCCCCn1ccc2cc(Cl)c(Cl)cc21 | – | – | – | IC50 (Histone deacetylase 1 [25]): 7.9 µM |
| CC(C)C(NC(=O)CCCNC(=O)CS)C(=O)Nc1cnc2ccccc2c1 (racemic) | – | – | – | IC50 (Histone deacetylase): 3.02 µM |
| Cc1onc(-c2ccccc2)c1/C=C/c1ccc(CNC(=O)C(C)S)cc1 (racemic) | > 30 | > 30 | > 30 | – |
| O=C(/C=C/c1cccc(S(=O)(=O)Nc2ccccc2)c1)NO [BELINOSTAT] | – | – | – | IC50 (Histone deacetylase 4): 1.24 µM; IC50 [26]: 0.031 µM |
